Paper PMC9885526 (ACS Central Science, 2023)

How the values were obtained:
SARS-CoV-2 [1] = details: cited from earlier work
SARS-CoV-2 [2] = system: SARS-CoV-2; design: species or system K18-hACE2 transgenic mice; details: mouse, in vivo, po, 300 mg/kg
[3] = system: SARS-CoV-2 (wild-type strain); assay: microbe, parasite or virus in culture; assay type: cell-based; details: Severe acute respiratory syndrome coronavirus 2
SARS-CoV-2 3CLpro = SARS-CoV-2 3CLpro (Severe acute respiratory syndrome coronavirus 2, UniProt P0DTD1); assay: biochemical
in vitro = details: human
[4] = system: SARS-CoV-2 (wild-type strain); assay: microbe, parasite or virus in culture; assay type: cell-based; details: Severe acute respiratory syndrome coronavirus 2, 48 h
[5] = system: SARS-CoV-2 (wild-type strain); assay: microbe, parasite or virus in culture; assay type: cell-based; details: Severe acute respiratory syndrome coronavirus 2, Calu-3
SARS-CoV 3CLpro = SARS-CoV 3CLpro (Severe acute respiratory syndrome coronavirus, UniProt P0C6X7); assay type: biochemical

## O=C(Cn1nnc2ccccc21)N(Cc1cccc(Cl)c1)c1ccc(-c2cnc[nH]2)cc1 [CCF0058981]
SARS-CoV-2 [1]
  EC50: ~500 nM

## CC(C)(C)[C@H](NC(=O)C(F)(F)F)C(=O)N1C[C@H]2[C@@H]([C@H]1C(=O)N[C@H](C#N)C[C@@H]1CCNC1=O)C2(C)C [PF-07321332, Nirmatrelvir]
SARS-CoV-2 [2]
  average body weight change: did not change
[3]
  EC50: 117 nM

## CCC(CCNc1c(C(=O)NC)cc(Br)cc1[N+](=O)[O-])NC(=O)c1cncc2cccc(O)c12 (stereo not shown) [WU-01]
SARS-CoV-2 3CLpro
  IC50: 648 ± 68 nM

## CNC(=O)c1cc(Br)cc([N+](=O)[O-])c1N1CC[C@@]2(CN(C(=O)c3cncc4cc(O)ccc34)C[C@@H]2c2ccccc2)C1 [WU-02]
In vitro
  CC50: > 20000 nM
[4]
  EC50: 54 nM
  EC90: 305 nM
SARS-CoV-2 3CLpro
  IC50: 71 nM
[5]
  EC50: 80 nM
  EC90: 201 ± 57 nM

## CNC(=O)c1cc(Br)cc([N+](=O)[O-])c1NC(C(C)C)C1CN(C(=O)c2cncc3cc(O)ccc23)C1 (stereo not shown) [WU-05]
SARS-CoV-2 3CLpro
  IC50: 122 ± 16 nM

## CNC(=O)c1cc(Br)ccc1N[C@@H]1CCCC[C@@H]1NC(=O)c1cncc2ccccc12 [WU-06]
SARS-CoV 3CLpro
  inhibition of SARS-CoV 3CLpro enzyme activity: showed no activity
SARS-CoV-2 3CLpro
  inhibitory activity against SARS-CoV-2 3CLpro: abolished the activity

## CNC(=O)c1cc(Br)cc(C(F)(F)F)c1N[C@@H]1CCCC[C@@H]1NC(=O)c1cncc2ccccc12 [WU-07]
SARS-CoV-2 3CLpro
  IC50: 239 ± 16 nM

## CNC(=O)c1cc(Br)cc(C#N)c1N[C@@H]1CCCC[C@@H]1NC(=O)c1cncc2ccccc12 [WU-08]
SARS-CoV-2 3CLpro
  IC50: 467 ± 64 nM

## CNC(=O)c1cc(Br)cc([N+](=O)[O-])c1N[C@@H]1CCCC[C@@H]1NC(=O)c1cncc2cc(O)ccc12 [WU-09]
SARS-CoV-2 3CLpro
  IC50: 221 ± 35 nM

## CNC(=O)c1cc(Br)cc([N+](=O)[O-])c1N[C@@H]1CCCC[C@@H]1NC(=O)c1cncc2cccc(O)c12 [WU-10]
SARS-CoV-2 3CLpro
  IC50: 135 ± 8 nM

## COC(=O)c1cc(Br)cc([N+](=O)[O-])c1N[C@@H]1CCCC[C@@H]1NC(=O)c1cncc2ccccc12 [WU-11]
SARS-CoV-2 3CLpro
  IC50: 849 ± 161 nM

## O=C(O)c1cc(Br)cc([N+](=O)[O-])c1N[C@@H]1CCCC[C@@H]1NC(=O)c1cncc2ccccc12 [WU-12]
SARS-CoV-2 3CLpro
  IC50: 6110 ± 2630 nM
